Reference: patent US9751887B2, “Imidazo[1,2-b]pyridazine derivatives as kinase inhibitors” (Daiichi Sankyo Company, Limited, priority 2012, dated 2017)

Key:
ROS1 [1] = target: T1, ROS1 (Homo sapiens, UniProt P08922); test: ROS1 kinase inhibitory activity evaluation (mobility shift, EZ Reader II); type: biochemical; conditions: ROS1 25 pg/μL, FL-Peptide 22 substrate, three separate measurements
T1 construct: purchased Carna Biosciences 08-163
Procedure: Next, a substrate reaction solution was prepared. […] Then, the reaction stop solution was added thereto at a concentration of 40 μL/well. Substrate phosphorylation intensity was measured using EZ Reader II (Caliper Life Sciences).

ROS1 [2] = target: T1, ROS1; test: ROS1 autophosphorylation inhibitory activity evaluation (ADP-Glo); type: biochemical; conditions: 200 nM inactive ROS1, ATP 1 mM, 25° C. 1.5 hours, ADP generated, four separate measurements
Procedure: Fifty mM HEPES (pH 7.5), 10 mM MgCl2, 0.01% Brij-58, and 2.5 mM DTT were mixed to prepare an enzymatic reaction solution. […] ATP (final concentration: 1 mM) was further added thereto at a concentration of 2.5 μL/well. The resulting plate was left standing at 25° C. for 1.5 hours to cause enzymatic reaction. After the completion of enzymatic reaction, ADP-Glo Reagent-1 (Promega, V9103) was added thereto at a concentration of 2.5 μL/well, and the plate was left standing at room temperature for 60 minutes. Then, ADP-Glo Reagent-2 (Promega) was added thereto at a concentration of 5 μL/well, and the plate was left standing at room temperature for 60 minutes. The amount of ADP generated by the autophosphorylation of ROS1 was measured using EnVision (PerkinElmer Japan). The amount of ADP generated in four separate measurements was defined as the autophosphorylation intensity of ROS1. IC50 values were calculated by curve fitting using GraphPad Prism version 4 (GraphPad software).

[3] = system: HCC78 cells having ROS1 fusion gene; test: HCC78 cell growth assay (CellTiter-Glo); type: cell-based; conditions: Homo sapiens, HCC78, 72 h, 72 hours culture, 2% FBS medium, luminescence, four separate measurements; read-out: growth inhibitory effect on HCC78 cells having ROS1 fusion gene IC50
Procedure: Each compound of the present invention was assayed for its cell growth inhibitory effect using HCC78 cells having ROS1 fusion gene.
The suspension was dispensed at a concentration of 100 μL/well to a 96-well culture plate for cell culture (SUMITOMO BAKELITE, Cat No MS-0096S) (hereinafter, referred to as an assay plate). […] In this context, the final concentration of DMSO was set to 0.4%. Then, the cells were cultured for 72 hours in a CO2 incubator.
CellTiter-Glo Luminescent Cell Viability Assay reagent (Promega, Cat No G7571) was dispensed at a concentration of 100 μL/well to the assay plate. The contents in each well were reacted at room temperature for 10 minutes while stirred using a plate mixer. […] The luminescence intensity of each well was measured using EnVision. The luminescence intensity of each well obtained in four separate measurements was defined as the number of cells. IC50 values were calculated by curve fitting using GraphPad Prism version 4.

T1 sequence (P08922 28-2347): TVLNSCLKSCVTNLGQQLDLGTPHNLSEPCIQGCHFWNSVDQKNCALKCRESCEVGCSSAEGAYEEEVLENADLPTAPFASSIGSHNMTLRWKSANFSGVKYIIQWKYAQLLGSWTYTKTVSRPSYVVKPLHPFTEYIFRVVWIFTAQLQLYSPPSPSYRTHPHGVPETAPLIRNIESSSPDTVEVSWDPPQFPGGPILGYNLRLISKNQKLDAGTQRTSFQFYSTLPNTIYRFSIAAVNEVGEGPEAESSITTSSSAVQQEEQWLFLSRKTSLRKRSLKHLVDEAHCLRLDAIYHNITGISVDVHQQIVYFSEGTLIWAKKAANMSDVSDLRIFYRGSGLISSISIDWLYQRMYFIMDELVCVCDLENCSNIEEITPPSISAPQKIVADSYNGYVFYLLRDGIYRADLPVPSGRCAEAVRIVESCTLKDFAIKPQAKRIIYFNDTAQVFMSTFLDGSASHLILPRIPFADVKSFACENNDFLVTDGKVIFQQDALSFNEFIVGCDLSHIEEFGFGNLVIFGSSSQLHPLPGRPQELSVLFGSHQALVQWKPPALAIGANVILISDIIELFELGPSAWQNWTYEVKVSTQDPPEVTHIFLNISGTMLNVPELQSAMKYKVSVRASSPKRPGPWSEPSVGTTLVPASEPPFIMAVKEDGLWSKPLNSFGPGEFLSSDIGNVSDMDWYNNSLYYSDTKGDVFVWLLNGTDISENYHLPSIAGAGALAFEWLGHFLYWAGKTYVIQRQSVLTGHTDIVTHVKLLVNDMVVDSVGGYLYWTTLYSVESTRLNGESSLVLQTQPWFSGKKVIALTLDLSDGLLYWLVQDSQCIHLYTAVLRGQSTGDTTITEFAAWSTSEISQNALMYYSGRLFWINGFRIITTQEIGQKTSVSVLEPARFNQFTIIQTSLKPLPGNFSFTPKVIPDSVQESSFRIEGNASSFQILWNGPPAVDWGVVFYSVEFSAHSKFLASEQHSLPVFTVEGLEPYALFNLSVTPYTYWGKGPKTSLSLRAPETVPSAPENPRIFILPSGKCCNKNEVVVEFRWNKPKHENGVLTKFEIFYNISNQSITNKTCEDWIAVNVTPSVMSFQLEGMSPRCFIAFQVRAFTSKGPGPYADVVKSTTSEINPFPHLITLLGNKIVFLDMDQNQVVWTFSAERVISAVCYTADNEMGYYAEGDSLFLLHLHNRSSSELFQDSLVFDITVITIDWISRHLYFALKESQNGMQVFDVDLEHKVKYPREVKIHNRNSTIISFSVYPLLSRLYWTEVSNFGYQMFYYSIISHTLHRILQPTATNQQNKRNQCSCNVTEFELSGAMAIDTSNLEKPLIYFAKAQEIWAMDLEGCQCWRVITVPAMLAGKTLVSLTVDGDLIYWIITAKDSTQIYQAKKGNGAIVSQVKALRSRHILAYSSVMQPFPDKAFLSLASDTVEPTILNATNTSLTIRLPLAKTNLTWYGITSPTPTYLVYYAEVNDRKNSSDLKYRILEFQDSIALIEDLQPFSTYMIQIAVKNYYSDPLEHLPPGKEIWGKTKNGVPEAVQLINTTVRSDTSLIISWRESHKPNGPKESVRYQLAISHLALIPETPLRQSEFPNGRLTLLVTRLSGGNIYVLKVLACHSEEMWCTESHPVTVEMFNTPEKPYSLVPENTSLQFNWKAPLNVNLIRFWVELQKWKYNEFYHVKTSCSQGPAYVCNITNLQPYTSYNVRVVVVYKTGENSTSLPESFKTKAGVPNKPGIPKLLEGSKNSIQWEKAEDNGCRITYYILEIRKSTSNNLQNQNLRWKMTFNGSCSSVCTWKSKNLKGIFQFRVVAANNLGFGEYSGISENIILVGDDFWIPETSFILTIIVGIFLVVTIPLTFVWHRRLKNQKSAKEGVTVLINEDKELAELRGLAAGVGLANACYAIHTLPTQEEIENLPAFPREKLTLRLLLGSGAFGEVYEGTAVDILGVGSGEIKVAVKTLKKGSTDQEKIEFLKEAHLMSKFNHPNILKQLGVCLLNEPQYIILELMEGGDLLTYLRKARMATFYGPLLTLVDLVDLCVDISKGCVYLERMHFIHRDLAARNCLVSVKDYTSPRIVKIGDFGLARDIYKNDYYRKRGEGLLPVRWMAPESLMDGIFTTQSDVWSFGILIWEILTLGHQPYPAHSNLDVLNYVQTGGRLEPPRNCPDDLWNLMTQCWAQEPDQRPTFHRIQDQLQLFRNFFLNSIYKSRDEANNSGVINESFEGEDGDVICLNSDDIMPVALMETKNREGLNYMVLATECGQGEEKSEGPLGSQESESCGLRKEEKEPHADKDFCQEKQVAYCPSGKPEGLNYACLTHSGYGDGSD

Structure (SMILES)	IC50 (ROS1 [1])	IC50 (ROS1 [2])	IC50 [3]
CC(Oc1ccc2ncc(-c3ccc(N4C[C@@H](N)CC4=O)cc3)n2n1)c1cc(Cl)n(C)n1 (stereo partly drawn) [Example 113, (4S)-4-Amino-1-[4-[6-[1-(5-chloro-1-methylpyrazol-3-yl)ethoxy]imidazo[1,2-b]pyridazin-3-yl]phenyl]pyrrolidin-2-one]	1 to 10 nM	< 20 nM	< 20 nM
CC[C@H](N)COc1ccc(-c2cnc3ccc(N[C@H](C)c4cccc(F)c4)nn23)cc1 [Example 49, 3-[4-[(2S)-2-Aminobutoxy]phenyl]-N-[(1R)-1-(3-fluorophenyl)ethyl]imidazo[1,2-b]pyridazin-6-amine]	< 1 nM	< 20 nM	< 20 nM
CC(Oc1ccc2ncc(-c3ccc(N4C[C@@H](N)CC4=O)cc3)n2n1)c1cc(C#N)n(C)n1 (stereo partly drawn) [Example 116, 5-[1-[3-[4-[(4S)-4-Amino-2-oxopyrrolidin-1-yl]phenyl]imidazo[1,2-b]pyridazin-6-yl]oxyethyl]-2-methylpyrazole-3-carbonitrile]	10 to 60 nM	100 to 150 nM	100 to 600 nM
CNC(C)COc1ccc(-c2cnc3ccc(N[C@H](C)c4cccc(F)c4)nn23)cc1 (stereo partly drawn) [Example 38, N-[(1R)-1-(3-Fluorophenyl)ethyl]-3-[4-[2-(methylamino)propoxy]phenyl]imidazo[1,2-b]pyridazin-6-amine]	< 1 nM	< 20 nM	< 20 nM
C[C@@H](Nc1ccc2ncc(-c3ccc(O[C@@H]4CCNC4)cc3)n2n1)c1cccc(F)c1 [Example 22, N-[(1R)-1-(3-Fluorophenyl)ethyl]-3-[4-[(3R)-pyrrolidin-3-yl]oxyphenyl]imidazo[1,2-b]pyridazin-6-amine]	< 1 nM	< 20 nM	20 to 100 nM
C[C@@H](Nc1ccc2ncc(-c3ccc(OC[C@@H](N)[C@@H](C)O)cc3)n2n1)c1cccc(F)c1 [Example 54, (2R,3R)-3-Amino-4-[4-[6-[[(1R)-1-(3-fluorophenyl)ethyl]amino]imidazo[1,2-b]pyridazin-3-yl]phenoxy]butan-2-ol]	< 1 nM	< 20 nM	< 20 nM
C[C@@H](Nc1ccc2ncc(-c3cccc(OC[C@@H]4CCCN4)c3)n2n1)c1cccc(F)c1 [Example 50, N-[(1R)-1-(3-Fluorophenyl)ethyl]-3-[3-[[(2S)-pyrrolidin-2-yl]methoxy]phenyl]imidazo[1,2-b]pyridazin-6-amine]	< 1 nM	< 20 nM	20 to 100 nM
NCCOc1ccc(-c2cnc3ccc(OCc4cccc(F)c4)nn23)cc1 [Example 14, 2-[4-[6-[(3-Fluorophenyl)methoxy]imidazo[1,2-b]pyridazin-3-yl]phenoxy]ethanamine]	1 to 10 nM	20 to 100 nM	100 to 600 nM
Fc1cccc(COc2ccc3ncc(-c4ccc(OC[C@@H]5CCCN5)cc4)n3n2)c1 [Example 12, 6-[(3-Fluorophenyl)methoxy]-3-[4-[[(2S)-pyrrolidin-2-yl]methoxy]phenyl]imidazo[1,2-b]pyridazine]	1 to 10 nM	20 to 100 nM	100 to 600 nM
C[C@@H](Nc1ccc2ncc(-c3cccc(N4C[C@@H](N)CC4=O)c3)n2n1)c1cccc(F)c1 [Example 91, (4S)-4-Amino-1-[3-[6-[[(1R)-1-(3-fluorophenyl)ethyl]amino]imidazo[1,2-b]pyridazin-3-yl]phenyl]pyrrolidin-2-one]	1 to 10 nM	< 20 nM	20 to 100 nM
C[C@@H](Nc1ccc2ncc(-c3ccc(OC4CNC4)cc3)n2n1)c1cccc(F)c1 [Example 25, 3-[4-(Azetidin-3-yloxy)phenyl]-N-[(1R)-1-(3-fluorophenyl)ethyl]imidazo[1,2-b]pyridazin-6-amine]	1 to 10 nM	< 20 nM	20 to 100 nM
C[C@@H](Nc1ccc2ncc(-c3ccc(OCCCN(C)C)cc3)n2n1)c1cccc(F)c1 [Example 70, 3-[4-[3-(Dimethylamino)propoxy]phenyl]-N-[(1R)-1-(3-fluorophenyl)ethyl]imidazo[1,2-b]pyridazin-6-amine]	< 1 nM	< 20 nM	20 to 100 nM
CN1CCC[C@H]1COc1cccc(-c2cnc3ccc(NCc4ccccc4)nn23)c1 [Example 8, N-Benzyl-3-[3-[[(2S)-1-methylpyrrolidin-2-yl]methoxy]phenyl]imidazo[1,2-b]pyridazin-6-amine]	1 to 10 nM	20 to 100 nM	20 to 100 nM
C[C@@H](Nc1ccc2ncc(-c3ccc(OCC4CNC4)cc3)n2n1)c1cccc(F)c1 [Example 27, 3-[4-(Azetidin-3-ylmethoxy)phenyl]-N-[(1R)-1-(3-fluorophenyl)ethyl]imidazo[1,2-b]pyridazin-6-amine]	1 to 10 nM	< 20 nM	100 to 600 nM
CC(Oc1ccc2ncc(-c3ccc(N4C[C@@H](N)CC4=O)cc3)n2n1)c1cc(F)ccc1F (stereo partly drawn) [Example 104, (4S)-4-Amino-1-[4-[6-[1-(2,5-difluorophenyl)ethoxy]imidazo[1,2-b]pyridazin-3-yl]phenyl]pyrrolidin-2-one]	< 1 nM	< 20 nM	20 to 100 nM
C[C@@H](Nc1ccc2ncc(-c3ccc(OCCN(C)C)cc3)n2n1)c1cccc(F)c1 [Example 69, 3-[4-(2-Dimethylaminoethoxy)phenyl]-N-[(1R)-1-(3-fluorophenyl)ethyl]imidazo[1,2-b]pyridazin-6-amine]	< 1 nM	< 20 nM	< 20 nM
C[C@@H](Nc1ccc2ncc(-c3ccc(SC[C@@H]4CCCN4)cc3)n2n1)c1ccccc1 [Example 20, N-[(1R)-1-Phenylethyl]-3-[4-[[(2S)-pyrrolidin-2-yl]methylsulfanyl]phenyl]imidazo[1,2-b]pyridazin-6-amine]	1 to 10 nM	20 to 100 nM	100 to 600 nM
C[C@@H](Nc1ccc2ncc(-c3ccc(OCCN(C)C)nc3)n2n1)c1cccc(F)c1 [Example 71, 3-[6-(2-Dimethylaminoethoxy)-3-pyridyl]-N-[(1R)-1-(3-fluorophenyl)ethyl]imidazo[1,2-b]pyridazin-6-amine]	1 to 10 nM	< 20 nM	< 20 nM
c1ccc(CNc2ccc3ncc(-c4ccc(O[C@@H]5CCNC5)cc4)n3n2)cc1 [Example 3, N-Benzyl-3-[4-[(3R)-pyrrolidin-3-yl]oxyphenyl]imidazo[1,2-b]pyridazin-6-amine]	1 to 10 nM	20 to 100 nM	20 to 100 nM
NC1CC(=O)N(c2ccc(-c3cnc4ccc(OCc5cccc(F)c5)nn34)cc2)C1 (stereo not drawn) [Example 73, 4-Amino-1-[4-[6-[(3-fluorophenyl)methoxy]imidazo[1,2-b]pyridazin-3-yl]phenyl]pyrrolidin-2-one]	1 to 10 nM	< 20 nM	20 to 100 nM
CC(Oc1ccc2ncc(-c3ccc(N4C[C@@H](N)CC4=O)cc3)n2n1)c1cncc(F)c1 (stereo partly drawn) [Example 107]	< 1 nM	< 20 nM	< 20 nM
CN(Cc1cc(F)cc(F)c1)c1ccc2ncc(-c3ccc(N4C[C@@H](N)CC4=O)cc3)n2n1 [Example 120, (4S)-4-Amino-1-[4-[6-[(3,5-difluorophenyl)methyl-methylamino]imidazo[1,2-b]pyridazin-3-yl]phenyl]pyrrolidin-2-one]	< 1 nM	< 20 nM	< 20 nM
CN(Cc1cncc(F)c1)c1ccc2ncc(-c3ccc(N4C[C@@H](N)CC4=O)c(C#N)c3)n2n1 [Example 130]	10 to 60 nM	20 to 100 nM	100 to 600 nM
N[C@H]1CC(=O)N(c2ccc(-c3cnc4ccc(OCc5cccc(F)c5)nn34)cc2)C1 [Example 76, (4S)-4-Amino-1-[4-[6-[(3-fluorophenyl)methoxy]imidazo[1,2-b]pyridazin-3-yl]phenyl]pyrrolidin-2-one]	< 1 nM	< 20 nM	20 to 100 nM
C[C@@H](Nc1ccc2ncc(-c3ccc(OC[C@@H]4CCNC4)cc3)n2n1)c1cccc(F)c1 [Example 23, N-[(1R)-1-(3-Fluorophenyl)ethyl]-3-[4-[[(3R)-pyrrolidin-3-yl]methoxy]phenyl]imidazo[1,2-b]pyridazin-6-amine]	< 1 nM	< 20 nM	100 to 600 nM
